Legend:
[1] = tested on: rat organotypic hippocampal slice culture (OHSC); experiment: Glutamate-induced excitotoxic cell death in organotypic hippocampal slice cultures (PI uptake); format: cell-based; conditions: 5 mM L-glutamate 3 hours; 24 hours after; DG, CA1, CA3; Fer-1 2 μM, CPX 5 μM, MK-801 10 μM
Method: OHSCs were cultured as previously described (Morrison et al., 2002) with approval from Columbia University's Institutional Animal Care and Use Committee (IACUC). Briefly, Sprague Dawley rat pups (P8-P10) were rapidly decapitated, and the hippocampus placed in ice-cold Gey's balanced salt solution (Sigma). 400 μm thick sections were cut using a Mcllwain tissue chopper and immediately plated on Millicell cell culture inserts (Millipore, Billerica, Mass.) in Neurobasal (Invitrogen) media supplemented with B27 (1×, Invitrogen), GlutaMAX (1 mM, Invitrogen), and D-glucose (4.5 mg/mL, Sigma) at 37° C. and 5% CO2. After 2 days in vitro (DIV), the media was changed to medium containing serum comprised of 50% DMEM (Sigma), 25% heat-inactivated horse serum (Sigma), 25% Hank's balanced salt solution (Sigma), GlutaMAX (1 mM, Invitrogen), and D-glucose (4.5 mg/mL, Sigma). Medium was changed every 2-3 days.
After 10-14 DIV, OBSCs were exposed to an excitotoxic injury consisting of a 3 hour exposure to 5 mM L-glutamate in SFM (Morrison et al., 2002). Only healthy OHSCs defined as those with less than 5% cell death in all regions of the hippocampus (DG, CA3, CA1) pre-injury were used for experiments. After the 3 hour exposure, the cultures were placed in fresh serum free media (SFM) containing 75% DMEM, 25% Hank's balanced salt solution, GlutaMAX (1 mM), D-glucose (4.5 mg/mL) until cell death was quantified at 24 hours. If drugs were added, they were added at the same time as glutamate.
Quantification of cell death has been described previously (Cater et al., 2007; Morrison et al., 2002). Brightfield images of the hippocampal cultures were taken before injury for identification of regions of interest (ROI) including the dentate gyrus (DG), CA3 and CA1. Propidium iodide (PI, Invitrogen) was used as a fluorescent signal for cell death, and images were taken before the induction of injury and 24 hours following injury. […] Percentage cell death was expressed as the number of pixels in the ROI above a threshold in the PI fluorescent image divided by the total number of pixels in the ROI.

HT-1080 cells = experiment: HT-1080 cell proliferation (Vi-Cell); format: cell-based, human; conditions: over 48 hours
Method: Cell viability was typically assessed in 384-well format by Alamar Blue (Invitrogen) fluorescence (ex/em 530/590) measured on a Victor3 platereader (Perkin Elmer, Waltham, Mass.). In some experiments, Trypan Blue dye exclusion counting was performed using an automated cell counter (ViCell, Beckman-Coulter Inc., Brea, Calif.). Cell viability in test conditions is reported as a percentage relative to the negative control treatment.

[2] = tested on: erastin (10 μM)-treated HT-1080 cells; experiment: Inhibition of death in erastin (10 μM)-treated HT-1080 cells, viability by Alamar Blue; format: cell-based, human; conditions: inhibition of death in erastin (10 μM)-treated HT-1080 cells; Alamar Blue; from dose response curves

Structure (SMILES): CCOC(=O)c1ccc(NC2CCCCC2)c(N)c1 [Fer-1, ferrostatin-1]
- glutamate-induced cell death (PI uptake) [1]: attenuated significantly and to an almost identical extent
- HT-1080 cell proliferation (HT-1080 cells): did not inhibit ERK phosphorylation or arrest the proliferation of HT-1080 cells
- EC50 [2]: 95 nM

Reference: patent publication US9580398B2, “Compounds, compositions, and methods for modulating ferroptosis and treating excitotoxic disorders” (The Trustees of Columbia University in the City of New York, priority 2012, dated 2017)
